# Patent US20160008490A1, “METAL CHELATE COMPOUNDS FOR BINDING TO THE PLATELET SPECIFIC GLYCOPROTEIN IIB/IIIA” (BAYER PHARMA AKTIENGESELLSCHAFT, priority 2013, published 2016)
# Key:
# [1] = Relaxivity measurements at 1.41 T in water and plasma; type: physicochemical; settings: relaxivity normalized to Gd, 37° C.
# Method: Relaxivity measurements at 1.41 T were performed using a MiniSpec mq60 spectrometer (Bruker Analytik, Karlsruhe) operating at a resonance frequency of 60 MHz and a temperature of 37° C. The T1 relaxation times were determined using the standard inversion recovery method. The T2 measurements were done by using the Carr-Purcell-Meiboom-Gill (CPMG) pulse sequence. All measurements were done at concentrations between 0.05 mM and 1 mM of Gd in water and plasma.
# The relaxivities ri (where i=1, 2) were calculated on the basis of the measured relaxation rates Ri in water and plasma:
# where Ri(0) represent the relaxation rate of the respective solvent and CGd the concentration of the compound normalized to the Gadolium.
# [2] = tested on: human activated platelets; assay: Binding of investigated compounds to human activated platelets (ICP-MS of Gd in pellet and supernatant); type: cell-based; settings: incubation concentration 1 μM molecule; for Concentration within platelet pellet: ADP-activated platelet-rich plasma, 20 minutes, pellet washed
# Method: For each experiment fresh blood was taken from a volunteer using 10 mL citrate-tubes (Sarstedt S-Monovette 02.1067.001, 10 mL, Citrate 3.13%). The 10 mL citrate-tubes were carefully inverted 10 times to mix blood and anticoagulant. The tubes were stored in an incubator at a temperature of 37° C. until centrifugation (Heraeus miniTherm CTT with integrated rotation- and turning device, turning speed: 19 rotations per minute, Heraeus Instruments GmbH, Hanau/Germany).
# For plasma preparation tube centrifugation was carried out for 15 minutes at 1811 g at room temperature (Eppendorf, Centrifuge 5810R). Blood was centrifuged 15 minutes at 201 g at room temperature to produce platelet-rich plasma. The tubes were stored for 30 min at room temperature to get a better separation. The separated platelet-rich plasma was finally centrifuged for further 3 min at 453 g to remove the remaining erythrocytes. The platelet-rich plasma was activated using a final concentration of 5 μM Adenosindiphosphate (ADP, Sigma). The activated platelet-rich plasma was incubated 20 minutes with different concentrations of gadolinium-labeled compound and subsequently was centrifuged 3 minutes at 1360 g. 20 μL of incubation solution was taken to determine the concentration (n=3). […] The gadolinium concentration of supernatant and pellet was determined using an inductively coupled plasma mass spectrometry (ICP-MS Agilent 7500a).
# The results for incubation concentration of 1 μM gadolinium-labeled compound are summarized in table 3 (in comparison to Gadovist® standard dose: 100 μmol Gd/kg body weight).
# [3] = target: T1, human GP IIb/IIIa receptor (Homo sapiens, UniProt P05106+P08514); assay: GPIIb/IIIa affinity assay (displacement of tritiated reference compound from immobilized receptor); type: binding; settings: purified human GPIIb/IIIa, 60 nM 3H-labeled reference compound, 1 hour at room temperature
# T1 construct: human GPIIb/IIIa purified from human platelets was immobilized on a 96-well solid plate; purchased Enzyme Research Laboratories Inc. (South Bend, Ind.); host or cells: human platelets (natural source, detergent-solubilised)
# Method: Affinity assay: In the first step human GPIIb/IIIa purified from human platelets was immobilized on a 96-well solid plate. After 48 hours the plates were washed and the unspecific binding sites were blocked with Roti®-Block. 2. In the next step, the plates were simultaneously incubated with a tritium labeled known GPIIb/IIIa binder (^3H) mixed with increasing concentrations of the novel compounds (inhibitor). The higher the affinity of the inhibitor, the lower the bound fraction of the tritiated known GPIIb/IIIa binder (^3H) was. The fraction of tritiated compound (^3H), which is not displaced by inhibitor, was measured in a microplate scintillation counter.
# Purified human glycoprotein IIb/IIIa (20 mM Tris-HCl, 0.1 M NaCl, 0.1% Triton X-100, 1 mM CaCl2, 0.05% NaN3, 50% Glycerol, pH 7.4) was purchased from Enzyme Research Laboratories Inc. (South Bend, Ind.). The GPIIb/IIIa receptor was diluted in phosphate-buffered saline (Dulbecco's Phosphate Buffered Saline (D-PBS (+)) with calcium and magnesium, GIBCO®, Invitrogen) with 0.01% bovine serum albumin (albumin from bovine serum—lyophilized powder, 96%, Sigma).
# The GPIIb/IIIa receptor was immobilized 48 hours at least (100 μL per well, 48 to maximum 96 hours) on a 96-well solid plate (Immuno Plate MaxiSorp™, Nunc, Roskilde, Denmark) at 277 K to 280 K and at a concentration of 0.1 μg per well to 1 μg per well. As negative control one row of the plate (n=8) was incubated just with 2% bovine serum albumin (200 μL per well, albumin from bovine serum—lyophilized powder, ≧96%, Sigma, diluted in D-PBS (+)).
# After washing three times with the wash buffer (230 μL per well, Dulbecco's Phosphate Buffered Saline (D-PBS (−)) contains no calcium or magnesium, GIBCO®, Invitrogen) residual exposed plastic and unspecific binding sites were blocked by incubating the plate with a special blocking solution (200 μL per well, Roti®-Block, Car Roth GmbH Co KG, Karlsruhe) containing 2% bovine serum albumin (Albumin from bovine serum—lyophilized powder, ≧96%, Sigma) 1 hour at room temperature.
# After washing three times with the wash buffer 50 μL of tritiated reference compound (60 nM, ^3H-labeled compound) and 50 μL of novel compound (inhibitor) were simultaneously added to each well and incubated for 1 hour at room temperature. Several concentrations of each novel inhibitor (0.1, 1, 2, 5, 10, 20 50, 100, 200, 500, 1000, 2000, 5000, 10000 and 20000 nM) were investigated. At each concentration of inhibitor a fourfold determination was performed.
# The maximum value of tritiated reference compound was determined without addition of inhibitor (n=8). To exclude unspecific binding of ^3H— reference compound wells without glycoprotein receptors were used as negative controls (n=12, identically treated just without GPIIb/IIIa receptors).
# After one hour the plate was washed three times with phosphate-buffered saline (200 μL per well, Dulbecco's Phosphate Buffered Saline (D-PBS (+)), GIBCO®, Invitrogen). Following 140 μL of liquid scintillation cocktail (MicroScint™ 40 aqueous, Perkin Elmer) was added to each well. After 15 min at room temperature the plates were measured at the microplate scintillation counter (TopCount NXT v2.13, Perkin Elmer, Packard Instrument Company).
# In the first step human glycoprotein IIb/IIIa, which is purified from human platelets, was immobilized on a 96-well solid plate. After 48 hours at least the plates were washed and the unspecific binding sites were blocked with Roti®-Block. In the next step, the plates were simultaneously incubated with a tritium labeled reference compound and the novel small molecule compound (inhibitor). The higher the affinity of the inhibitor, the smaller is the bound fraction of reference compound. The fraction of tritiated reference compound, which is not displaced by inhibitor, was measured at a microplate scintillation counter. The higher the affinity of the inhibitor, the smaller is the bound fraction of tritium-labeled reference compound. […]
# T1 sequence (P08514 32-887 limits assumed): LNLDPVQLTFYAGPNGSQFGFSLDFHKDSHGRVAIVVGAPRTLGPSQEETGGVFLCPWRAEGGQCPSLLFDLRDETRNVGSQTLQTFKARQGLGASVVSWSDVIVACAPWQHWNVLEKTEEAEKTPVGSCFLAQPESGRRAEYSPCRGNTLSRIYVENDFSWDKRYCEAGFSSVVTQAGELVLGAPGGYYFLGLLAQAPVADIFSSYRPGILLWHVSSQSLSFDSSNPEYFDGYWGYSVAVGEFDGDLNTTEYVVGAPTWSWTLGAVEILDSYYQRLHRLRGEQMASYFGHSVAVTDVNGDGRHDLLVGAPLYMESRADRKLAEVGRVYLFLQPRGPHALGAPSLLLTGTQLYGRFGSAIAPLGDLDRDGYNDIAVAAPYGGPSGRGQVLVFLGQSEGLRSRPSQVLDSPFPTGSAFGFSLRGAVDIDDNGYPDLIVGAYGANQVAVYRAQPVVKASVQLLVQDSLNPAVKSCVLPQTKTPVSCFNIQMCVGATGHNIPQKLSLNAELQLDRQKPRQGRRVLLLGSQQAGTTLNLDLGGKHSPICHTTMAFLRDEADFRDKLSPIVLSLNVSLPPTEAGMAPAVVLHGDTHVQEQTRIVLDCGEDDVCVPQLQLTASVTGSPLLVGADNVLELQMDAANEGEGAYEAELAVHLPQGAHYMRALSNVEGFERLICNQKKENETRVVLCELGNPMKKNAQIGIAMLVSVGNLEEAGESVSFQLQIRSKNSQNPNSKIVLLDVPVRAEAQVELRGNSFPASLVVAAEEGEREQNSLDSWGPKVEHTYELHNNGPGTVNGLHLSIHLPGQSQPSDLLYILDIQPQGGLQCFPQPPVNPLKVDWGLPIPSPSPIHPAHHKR
# T1 sequence (P08514 891-1039 partner limits assumed): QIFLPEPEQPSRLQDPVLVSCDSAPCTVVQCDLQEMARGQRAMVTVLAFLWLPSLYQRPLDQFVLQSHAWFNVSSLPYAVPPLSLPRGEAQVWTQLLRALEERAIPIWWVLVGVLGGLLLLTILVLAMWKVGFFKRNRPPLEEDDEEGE
# T1 sequence (P05106 27-788): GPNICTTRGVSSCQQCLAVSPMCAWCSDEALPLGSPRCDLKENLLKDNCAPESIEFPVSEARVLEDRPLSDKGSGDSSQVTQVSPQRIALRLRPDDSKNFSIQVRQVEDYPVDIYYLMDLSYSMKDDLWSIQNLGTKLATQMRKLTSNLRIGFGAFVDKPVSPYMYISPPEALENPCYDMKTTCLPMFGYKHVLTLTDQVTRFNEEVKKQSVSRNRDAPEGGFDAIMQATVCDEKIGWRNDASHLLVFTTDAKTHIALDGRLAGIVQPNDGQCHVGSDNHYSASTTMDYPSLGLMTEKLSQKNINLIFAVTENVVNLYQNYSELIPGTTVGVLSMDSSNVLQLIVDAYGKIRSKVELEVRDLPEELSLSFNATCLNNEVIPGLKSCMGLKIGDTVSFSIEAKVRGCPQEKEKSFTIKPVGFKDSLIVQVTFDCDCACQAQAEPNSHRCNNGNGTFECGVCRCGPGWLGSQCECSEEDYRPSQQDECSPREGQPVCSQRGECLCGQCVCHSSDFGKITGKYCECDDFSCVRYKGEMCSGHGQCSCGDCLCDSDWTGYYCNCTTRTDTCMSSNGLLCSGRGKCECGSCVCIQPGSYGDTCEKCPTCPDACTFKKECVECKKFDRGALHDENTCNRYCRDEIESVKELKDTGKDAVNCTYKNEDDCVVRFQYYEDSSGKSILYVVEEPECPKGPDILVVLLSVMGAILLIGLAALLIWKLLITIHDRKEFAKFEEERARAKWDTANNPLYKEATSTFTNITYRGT
Compound,r1 plasma [1],r1 water [1],Concentration within platelet pellet [2],IC50 [3],pellet/supernatant ([2]; ratio of Gd concentration)
"CC(C(=O)NCC(=O)NCCCCc1cc(C#Cc2cncc([C@H](CC(=O)O)NC(=O)[C@@H]3CCCN(C(=O)CCC4CCNCC4)C3)c2)cc(CCCCNC(=O)CNC(=O)C(C)N2CCN(CC(=O)O)CCN(CC(=O)O)CCN(CC(=O)O)CC2)c1)N1CCN(CC(=O)O)CCN(CC(=O)O)CCN(CC(=O)O)CC1 (stereo partly drawn) [Example 6, Digadolinium 2,2′,2″,2′″,2″″,2′″″-({5-[(5-{(1S)-2-carboxy-1-[({(3R)-1-[3-(piperidin-4-yl)-propanoyl]piperidin-3-yl}carbonyl)amino]ethyl}pyridin-3-yl)ethynyl]-1,3-phenylene}-bis[butane-4,1-diylimino(2-oxoethane-2,1-diyl)imino(1-oxopropane-1,2-diyl)-1,4,7,10-tetraazacyclododecane-10,1,4,7-tetrayl])hexaacetate]",10.3 L/mmol/s,8.5 L/mmol/s,6.8 ± 0.7 μM Gd,103 nM,
"Gadolinium 2,2′,2″-{10-[(2S)-1-({2-[(6-(3-[(5-{(1S)-2-carboxy-1-[({(3R)-1-[3-(piperidin-4- yl)propanoyl]piperidin-3-yl}carbonyl)amino]ethyl}pyridin-3-yl)ethynyl]phenyl}butyl)-amino]-2-oxoethyl)amino)-1-oxopropan-2-yl]-1,4,7,10-tetraazacyclododecane-1,4,7-triyl}triacetate [Example 5]",9.9 L/mmol/s,8.0 L/mmol/s,3.9 ± 0.4 μM Gd,25 nM,123 ± 16 (n = 3)
